The text below walks through data of patent US20220213144A1, “HALOGENATED ANTIMICROBIAL PEPTOIDS” (priority 2019, published 2022).

Data set [1] can be described thus: Small angle X-ray scattering, critical aggregation concentration from fit. In kind it is physicochemical. The following applies: for critical aggregation concentration (CAC): SAXS fit analysis, bundle model. How it is done: SAXS experiments of the 10-mer peptoids were performed on the automated BM29 bioSAXS beamline at the European Synchrotron Radiation Facility (ESRF) in Grenoble, France. The data was obtained using an energy of 12.5 keV and a detector distance of 2.87 m, covering a q range (q=4π sin(θ/2)/λ), where θ is the scattering angle and λ is the X-ray wavelength) of about 0.0047 Å-1 to 0.5 Å-1. The data set was calibrated to an absolute intensity scale using water as a primary standard. Samples (40 μL) were run through a capillary using the flow mode of the automated sample changer. SAXS data was collected in ten successive frames of 0.5 s each to monitor radiation damage, and the data reduction was done using the standard tool at BM29.
The SAXS experiments on the fully iodinated 6-, 8-, and 12-mers to determine the CAC of the compounds were performed using a Bruker NANOSTAR equipped with a microfocus X-ray source (IμS Cu, Incoatec, Germany) and a VANTEC-2000 detector. Raw scattering data was calibrated to absolute intensity scale using water as a primary standard and radially averaged in order to obtain the 1D scattered intensity profile as a function of the scattering vector, with a wavelength of 1.54 Å.
where fagg is the fraction of peptoid chains aggregated in bundles, allowing for calculation of a CAC from ϕCAC=ϕ−(fagg*ϕ).

Data set [2] deals with methicillin-restant S. epidermidis ATCC 51625. In kind it is cell-based, Staphylococcus epidermidis. The note with it: for MIC against MRSE: text b77, 6-mers, strain not named, values fit ATCC 51625. The procedure: (§1) Bacterial growth inhibition was determined by using broth microdilution according to the Clinical Laboratory Standards Institute. The antibacterial activity of peptoids was tested against S. aureus ATCC 25923, ATCC29213, and methicillin resistant S. aureus USA 300, methicillin resistant S. epidermidis ATCC 51625, a biofilm producing methicillin resistant S. epidermidis […], P. aeruginosa Pa01 (H103), and E. coli ATCC 25922. Bacteria, grown on agar plates for 18 hours at 37° C., were diluted to ˜1×10^8 CFU/mL in Mueller-Hinton Broth II (MHB II). Twofold serial dilutions of peptoids in MHB II were inoculated with the bacteria to achieve a final concentration of 5×10^5 CFU/mL in polypropylene 96 U-well microtiter plates (Corning™ 3897; ThermoFisher Scientific, Roskilde), followed by incubation at 37° C. in ambient air for 18 hours. The MIC values were determined as the lowest concentration showing no visible bacterial growth. Experiments were performed twice (in technical triplicates) on different days.

Data set [3] concerns S. aureus ATCC 25923. In kind it is cell-based, Staphylococcus aureus. The note with it: for increase in activity against S. aureus: compared to the unsubstituted control peptoid of same length; for MIC against S. aureus: strain not named. How it is done: as §1
Data set [4] concerns methicillin-restant S. epidermidis ET-024. In kind it is cell-based, Staphylococcus epidermidis. The note with it: for increase in activity against MRSE: 8-mer and 10-mer, compared to unsubstituted controls 10 and 19; for MIC against MRSE: strain not named. The procedure: as §1
Data set [5] relates to seven bacterial strains. Nature of the data set: MIC by broth microdilution, whole panel of bacterial strains. In kind it is cell-based. The following applies: in words. The procedure: All 36 peptoids were tested against seven bacterial strains. These included five Gram-positive strains (Staphylococcus aureus ATCC 25923 and ATCC 29213, methicillin-resistant Staphylococcus aureus USA 300, methicillin-restant Staphylococcus epidermidis ET-024 and ATCC 51625) and two Gram-negative strains (Escherichia coli ATCC 25922 and Pseudomonas aeruginosa PA01) (see TABLE 1).
as §1
(In general: In broth dilution the organism is exposed to a series of concentrations in liquid medium.)

The mark [6] stands for this setting: Table 2, 10-mers, SAXS at ESRF, model fit.
Where [7] appears, read: Table 3, fully iodinated peptoids, bundle model fit.
[8] abbreviates: 8-mers and 10-mers, values fit ET-024.

SMILES strings stand for the structures. In brackets after ≈: the same amount, converted by molar mass. Like-named read-outs stand apart in the source and are kept apart here. Square brackets hold non-standard residues; d marks the D form. Peptide text beside a SMILES is read from it. Gly(Nα-4-Cl-benzyl) = O=C(O)CNCc1ccc(Cl)cc1; N(4-Br-benzyl)Gly = O=C(O)CNCc1ccc(Br)cc1; N(4-F-Bzl)Gly = O=C(O)CNCc1ccc(F)cc1; NBzl(4-I)Gly = O=C(O)CNCc1ccc(I)cc1; Nphe = O=C(O)CNCc1ccccc1; Nlys = NCCCCNCC(=O)O A value given as a limit tells only on which side of the number the result lay.

For `NCCCCNCC(=O)N(CC(=O)N(CCCCN)CC(=O)N(CC(=O)N(CCCCN)CC(=O)N(CC(=O)N(CCCCN)CC(=O)N(CC(=O)N(CCCCN)CC(=O)N(CC(N)=O)Cc1ccc(Cl)cc1)Cc1ccc(Cl)cc1)Cc1ccc(Cl)cc1)Cc1ccc(Cl)cc1)Cc1ccc(Cl)cc1` [Compound 21] (H-[Nlys][Gly(Nα-4-Cl-benzyl)][Nlys][Gly(Nα-4-Cl-benzyl)][Nlys][Gly(Nα-4-Cl-benzyl)][Nlys][Gly(Nα-4-Cl-benzyl)][Nlys][Gly(Nα-4-Cl-benzyl)]-NH2; N-terminus assumed), the CAC in data set [1] (setting [6]) is on record as over 5 mg/mL.
In the case of `NCCCCNCC(=O)N(CC(=O)N(CCCCN)CC(=O)N(CC(=O)N(CCCCN)CC(=O)N(CC(N)=O)Cc1ccc(I)cc1)Cc1ccc(I)cc1)Cc1ccc(I)cc1` [Compound 5] (H-[Nlys][NBzl(4-I)Gly][Nlys][NBzl(4-I)Gly][Nlys][NBzl(4-I)Gly]-NH2; N-terminus assumed), in data set [1], the “critical aggregation concentration (CAC)” value was 2.8 mg/mL. In data set [1] (setting [7]), this compound came in with a CAC of 2.8 mg/mL. Moreover, in data set [2] (6-mer, compared to unsubstituted control 1), the “increase in activity against MRSE” value is listed as 256 fold. Further, the “MIC against MRSE” value in data set [2] came out at 2 µg/mL (≈ 1.64 µM). Also, in data set [3], the “increase in activity against S. aureus” value is listed as “more than 64 fold” and the MIC against S. aureus was determined as 8 µg/mL (≈ 6.55 µM).
Take `NCCCCNCC(=O)N(CC(=O)N(CCCCN)CC(=O)N(CC(=O)N(CCCCN)CC(=O)N(CC(=O)N(CCCCN)CC(=O)N(CC(=O)N(CCCCN)CC(=O)N(CC(N)=O)Cc1ccc(I)cc1)Cc1ccc(I)cc1)Cc1ccc(I)cc1)Cc1ccc(I)cc1)Cc1ccc(I)cc1` [Compound 23] (H-[Nlys][NBzl(4-I)Gly][Nlys][NBzl(4-I)Gly][Nlys][NBzl(4-I)Gly][Nlys][NBzl(4-I)Gly][Nlys][NBzl(4-I)Gly]-NH2; N-terminus assumed): the “critical aggregation concentration (CAC)” value in data set [1] was 0.5 mg/mL. Besides, the CAC was determined as 0.4 mg/mL in data set [1] (setting [6]) and 0.5 mg/mL in data set [1] (setting [7]).
For `NCCCCNCC(=O)N(CC(=O)N(CCCCN)CC(=O)N(CC(=O)N(CCCCN)CC(=O)N(CC(=O)N(CCCCN)CC(=O)N(CC(N)=O)Cc1ccc(I)cc1)Cc1ccc(I)cc1)Cc1ccc(I)cc1)Cc1ccc(I)cc1` [Compound 14] (H-[Nlys][NBzl(4-I)Gly][Nlys][NBzl(4-I)Gly][Nlys][NBzl(4-I)Gly][Nlys][NBzl(4-I)Gly]-NH2; N-terminus assumed), the “critical aggregation concentration (CAC)” value in data set [1] is on record as 1.4 mg/mL. In addition, the CAC in data set [1] (setting [7]) is 1.4 mg/mL. In data set [4], the “increase in activity against MRSE” value worked out at 128 fold and the MIC against MRSE came out at 2 µg/mL (≈ 1.23 µM).
Take `NCCCCNCC(=O)N(CC(=O)N(CCCCN)CC(=O)N(CC(=O)N(CCCCN)CC(=O)N(CC(=O)N(CCCCN)CC(=O)N(CC(=O)N(CCCCN)CC(=O)N(CC(N)=O)Cc1ccc(Cl)cc1)Cc1ccccc1)Cc1ccc(Cl)cc1)Cc1ccccc1)Cc1ccc(Cl)cc1` [Compound 25] (H-[Nlys][Gly(Nα-4-Cl-benzyl)][Nlys][Nphe][Nlys][Gly(Nα-4-Cl-benzyl)][Nlys][Nphe][Nlys][Gly(Nα-4-Cl-benzyl)]-NH2): the CAC in data set [1] (setting [6]) is given as over 5 mg/mL.
`NCCCCNCC(=O)N(CC(=O)N(CCCCN)CC(=O)N(CC(=O)N(CCCCN)CC(=O)N(CC(=O)N(CCCCN)CC(=O)N(CC(=O)N(CCCCN)CC(=O)N(CC(N)=O)Cc1ccc(Br)cc1)Cc1ccc(Br)cc1)Cc1ccc(Br)cc1)Cc1ccc(Br)cc1)Cc1ccc(Br)cc1` [Compound 22] (H-[Nlys][N(4-Br-benzyl)Gly][Nlys][N(4-Br-benzyl)Gly][Nlys][N(4-Br-benzyl)Gly][Nlys][N(4-Br-benzyl)Gly][Nlys][N(4-Br-benzyl)Gly]-NH2; N-terminus assumed): in data set [1], the “critical aggregation concentration (CAC)” value is reported as 2.3 mg/mL. Moreover, in data set [1] (setting [6]), the CAC worked out at 2.3 mg/mL. Besides, the “increase in activity against MRSE” value in data set [4] worked out at 128 fold. Further, in data set [4] (setting [8]), the “MIC against MRSE” value came out at 1 µg/mL (≈ 0.559 µM). Also, in data set [3], the “increase in activity against S. aureus” value is on record as over 256 fold and the “MIC against S. aureus” value stood at 2 µg/mL (≈ 1.12 µM).
For the compound `NCCCCNCC(=O)N(CC(=O)N(CCCCN)CC(=O)N(CC(=O)N(CCCCN)CC(=O)N(CC(N)=O)Cc1ccccc1)Cc1ccccc1)Cc1ccccc1` [Compound 1] (H-[Nlys][Nphe][Nlys][Nphe][Nlys][Nphe]-NH2; N-terminus assumed), the “potency against the selected bacterial strains” value in data set [5] was “inactive”. Also, the “MIC against MRSE” value in data set [2] was 512 µg/mL (≈ 607 µM).
As for `NCCCCNCC(=O)N(CC(=O)N(CCCCN)CC(=O)N(CC(=O)N(CCCCN)CC(=O)N(CC(=O)N(CCCCN)CC(=O)N(CC(=O)N(CCCCN)CC(=O)N(CC(=O)N(CCCCN)CC(=O)N(CC(N)=O)Cc1ccccc1)Cc1ccccc1)Cc1ccccc1)Cc1ccccc1)Cc1ccccc1)Cc1ccccc1` [Compound 28] (H-[Nlys][Nphe][Nlys][Nphe][Nlys][Nphe][Nlys][Nphe][Nlys][Nphe][Nlys][Nphe]-NH2; N-terminus assumed), the “potency against the selected bacterial strains” value in data set [5] was “inactive”.
The compound `NCCCCNCC(=O)N(CC(=O)N(CCCCN)CC(=O)N(CC(=O)N(CCCCN)CC(=O)N(CC(=O)N(CCCCN)CC(=O)N(CC(=O)N(CCCCN)CC(=O)N(CC(N)=O)Cc1ccccc1)Cc1ccccc1)Cc1ccccc1)Cc1ccccc1)Cc1ccccc1` [Compound 19] (H-[Nlys][Nphe][Nlys][Nphe][Nlys][Nphe][Nlys][Nphe][Nlys][Nphe]-NH2; N-terminus assumed) gave a CAC in data set [1] (setting [6]) of over 5 mg/mL. In data set [5], the “potency against the selected bacterial strains” value is “inactive”. In data set [4] (setting [8]), the “MIC against MRSE” value came to 128 µg/mL (≈ 91.8 µM).
For the compound `NCCCCNCC(=O)N(CC(=O)N(CCCCN)CC(=O)N(CC(=O)N(CCCCN)CC(=O)N(CC(=O)N(CCCCN)CC(=O)N(CC(=O)N(CCCCN)CC(=O)N(CC(=O)N(CCCCN)CC(=O)N(CC(N)=O)Cc1ccc(I)cc1)Cc1ccc(I)cc1)Cc1ccc(I)cc1)Cc1ccc(I)cc1)Cc1ccc(I)cc1)Cc1ccc(I)cc1` [Compound 32] (H-[Nlys][NBzl(4-I)Gly][Nlys][NBzl(4-I)Gly][Nlys][NBzl(4-I)Gly][Nlys][NBzl(4-I)Gly][Nlys][NBzl(4-I)Gly][Nlys][NBzl(4-I)Gly]-NH2; N-terminus assumed), in data set [1], the “critical aggregation concentration (CAC)” value stood at 0.4 mg/mL. Further, the CAC in data set [1] (setting [7]) was 0.4 mg/mL.
In turn, `NCCCCNCC(=O)N(CC(=O)N(CCCCN)CC(=O)N(CC(=O)N(CCCCN)CC(=O)N(CC(=O)N(CCCCN)CC(=O)N(CC(=O)N(CCCCN)CC(=O)N(CC(N)=O)Cc1ccc(F)cc1)Cc1ccc(F)cc1)Cc1ccc(F)cc1)Cc1ccc(F)cc1)Cc1ccc(F)cc1` [Compound 20] (H-[Nlys][N(4-F-Bzl)Gly][Nlys][N(4-F-Bzl)Gly][Nlys][N(4-F-Bzl)Gly][Nlys][N(4-F-Bzl)Gly][Nlys][N(4-F-Bzl)Gly]-NH2; N-terminus assumed) gave a CAC in data set [1] (setting [6]) of over 5 mg/mL.
Regarding `NCCCCNCC(=O)N(CC(=O)N(CCCCN)CC(=O)N(CC(=O)N(CCCCN)CC(=O)N(CC(=O)N(CCCCN)CC(=O)N(CC(=O)N(CCCCN)CC(=O)N(CC(N)=O)Cc1ccc(F)cc1)Cc1ccccc1)Cc1ccc(F)cc1)Cc1ccccc1)Cc1ccc(F)cc1` [Compound 24] (H-[Nlys][N(4-F-Bzl)Gly][Nlys][Nphe][Nlys][N(4-F-Bzl)Gly][Nlys][Nphe][Nlys][N(4-F-Bzl)Gly]-NH2), in data set [1] (setting [6]), the CAC was over 5 mg/mL.
`NCCCCNCC(=O)N(CC(=O)N(CCCCN)CC(=O)N(CC(=O)N(CCCCN)CC(=O)N(CC(=O)N(CCCCN)CC(=O)N(CC(=O)N(CCCCN)CC(=O)N(CC(N)=O)Cc1ccc(I)cc1)Cc1ccccc1)Cc1ccc(I)cc1)Cc1ccccc1)Cc1ccc(I)cc1` [Compound 27] (H-[Nlys][NBzl(4-I)Gly][Nlys][Nphe][Nlys][NBzl(4-I)Gly][Nlys][Nphe][Nlys][NBzl(4-I)Gly]-NH2) registered a CAC in data set [1] (setting [6]) of over 5 mg/mL.
As for `NCCCCNCC(=O)N(CC(=O)N(CCCCN)CC(=O)N(CC(=O)N(CCCCN)CC(=O)N(CC(=O)N(CCCCN)CC(=O)N(CC(N)=O)Cc1ccccc1)Cc1ccccc1)Cc1ccccc1)Cc1ccccc1` [Compound 10] (H-[Nlys][Nphe][Nlys][Nphe][Nlys][Nphe][Nlys][Nphe]-NH2; N-terminus assumed), in data set [5], the “potency against the selected bacterial strains” value is “inactive”. Besides, the “MIC against MRSE” value in data set [4] (setting [8]) turned out to be 256 µg/mL (≈ 229 µM).
